US11111500B2, “Mutated protoporphyrinogen IX oxidase (PPX) genes” (CIBUS US LLC, priority 2010, dated 2021)
Read-outs that look alike come from different tables or passages of the source.

Columns and labels:
potato plastidal PPX = assay: Tolerance to flumioxazin of HemG mutant E. coli complemented with potato plastidal PPX (liquid selection, colony count); type: cell-based, Solanum tuberosum
Text: StcPPX1, less its chloroplast transit peptide was cloned from cDNA into Cibus' proprietary functional screening vector. This vector may be used both for functional screening, and for GRON QC. The potato PPX genes were used to complement the HemG mutant strain of E. coli, which lacks a functional HemG gene, a bacterial homolog of PPX. Without a complementing gene, the media must be supplemented with hematin for E. coli growth.
In order to assess mutations that confer tolerance to PPX inhibitors such as Chateau (flumioxazin-Valent/Sumitomo), Naja (diphenylether—MAI) or Kixor (saflufenacil—BASF). Pure active ingredients for the PPX inhibiting herbicides Chateau (flumioxazin—Valent/Sumitomo), Spartan (sulfentrazone—FMC) and Kixor/Sharpen (saflufenacil—BASF) were obtained. […]
Liquid culture selection conditions were developed for both sulfentrazone and flumioxazin. […] Spectrophotometric readings (OD600) were taken for each sample (1:4 dilution) and a sample of each plated on LB-Chlor-IPTG plates to determine whether the OD600 correlated with the number of viable colonies. […]
Randomly mutagenized plasmids (5′ and 3′ ends) were transformed into XL1-Blue E. coli cells. […] Colony counts were compared between the two and mutation tolerance determined based on the percentage of colonies on the 0.75 mM sulfentrazone plates as compared with those on the 0 mM plates. […]

[1] = Solubility of herbicide in liquid culture selection media; type: physicochemical
Procedure: Liquid culture selection conditions were developed for both sulfentrazone and flumioxazin. Cultures of 1 mL volume were tested with sulfentrazone and flumioxazin concentrations ranging from 0 to 10 mM. The 0 mM samples had 25 μL DMSO (2.5%) to mimic the concentration of DMSO in the samples containing 10 mM herbicide. Each tube was inoculated with 10 μL of an overnight culture of HemG cells complemented with the wildtype PPX plasmid to ensure uniformity. Spectrophotometric readings (OD600) were taken for each sample (1:4 dilution) and a sample of each plated on LB-Chlor-IPTG plates to determine whether the OD600 correlated with the number of viable colonies. A 10% dilution of the overnight culture was plated for the sulfentrazone-treated cells and a 1% dilution for the cells treated with flumioxazin was plated (see results in Tables 8a-f and 9a-d).
Both sulfentrazone and flumioxazin precipitate out in the liquid media, causing it to appear opaque even before inoculating bacteria.

Compound | colony numbers against the WT gene with increasing flumioxazin (potato plastidal PPX; 0 to 10 mM in 1 mL liquid cultures) | growth of the wildtype construct at 10 mM flumioxazin (potato plastidal PPX; 10 mM flumioxazin, liquid selection) | solubility in liquid media ([1]; liquid culture selection media, 0 to 10 mM, DMSO 2.5%) | solubility in liquid media [1]
C#CCN1C(=O)COc2cc(F)c(N3C(=O)C4=C(CCCC4)C3=O)cc21 [flumioxazin] | steadily decreasing colony numbers | limited growth | deficient solubility | 
Cc1nn(-c2cc(NS(C)(=O)=O)c(Cl)cc2Cl)c(=O)n1C(F)F [sulfentrazone] |  |  |  | eventually goes into solution
